Source: patent US20020182239A1, “Composition and method for inhibiting polar capsule discharge and protecting a subject from nematocyst sting” (priority 2002, published 2002)
Where two headings read alike, the source gives them in different places.

Assays:
[1] = test system: isolated nematocyst capsules; details: 50 mM CaCl2; cited from earlier work
[2] = test system: jellyfish Rhopilema nomadica nematocysts

SMILES | discharge of isolated nematocyst capsules [1] | nematocysts in skin treated with ointment base alone relative to skin treated with formalin ([2]; 0.1% formalin) | decrease in nematocysts skin penetration ([2]; 0.1% formalin in ointment base vs ointment base alone) | nematocyst discharge and skin penetration ([2]; formalin concentration 0.01%) | nematocyst discharge and skin penetration ([2]; formalin concentration 0.05%) | average number of nematocysts counted on a skin sample ([2]; ointment base containing 0.1% formalin, human skin sections, tentacles 10 seconds)
[Ca+2].[Cl-].[Cl-] [CaCl2] | do not discharge | – | – | – | – | –
C=O [formalin] | – | more than 5 times | over 80% | reduces nematocyst discharge and skin penetration | reduces nematocyst discharge and skin penetration | 5+/−4 nematocysts
